{"source": "the supplement of paper PMC10307832", "assay_in_all_cases": "relative viability (nuclei count vs DMSO), 5 days (fraction); higher = more cells survive", "key": {"[1]": {"test_system": "201T", "procedure,_shortened": "(§1)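 For relative viability, nuclei counts in treated wells were divided by those in vehicle wells. Lung cancer cell lines had been pin-tool dosed in 1536-well plates the day after seeding and cultured for 5 days, then fixed and stained in one step (final 0.05% Triton X-100, 1% formaldehyde, 1 ug/ml Hoechst) and imaged at 4×. Doses were one drug alone or a fixed anchor-drug dose plus five library-drug doses (not always all listed) in √10 steps, and values are duplicate-plate medians.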"}, "[2]": {"test_system": "A-427", "procedure,_shortened": "as §1"}, "[3]": {"test_system": "COR-L23", "procedure,_shortened": "as §1"}, "[4]": {"test_system": "H3255", "procedure,_shortened": "as §1"}, "[5]": {"test_system": "HCC-44", "procedure,_shortened": "as §1"}, "[6]": {"test_system": "LC-2-ad", "procedure,_shortened": "as §1"}, "[7]": {"test_system": "LCLC-103H", "procedure,_shortened": "as §1"}, "[8]": {"test_system": "LCLC-97TM1", "procedure,_shortened": "as §1"}, "[9]": {"test_system": "LK-2", "procedure,_shortened": "as §1"}, "[10]": {"test_system": "LU99A", "procedure,_shortened": "as §1"}, "[11]": {"test_system": "NCI-H1563", "procedure,_shortened": "as §1"}, "[12]": {"test_system": "NCI-H1650", "procedure,_shortened": "as §1"}, "[13]": {"test_system": "NCI-H1793", "procedure,_shortened": "as §1"}, "[14]": {"test_system": "NCI-H2228", "procedure,_shortened": "as §1"}, "[15]": {"test_system": "NCI-H2347", "procedure,_shortened": "as §1"}, "[16]": {"test_system": "NCI-H23", "procedure,_shortened": "as §1"}, "[17]": {"test_system": "NCI-H460", "procedure,_shortened": "as §1"}, "[18]": {"test_system": "NCI-H596", "procedure,_shortened": "as §1"}, "[19]": {"test_system": "PC-14", "procedure,_shortened": "as §1"}, "[20]": {"test_system": "SW 1573", "procedure,_shortened": "as §1"}, "[21]": {"test_system": "SW 900", "procedure,_shortened": "as §1"}}, "data": [{"smiles": "Cc1sc2c(c1C)C(c1ccc(Cl)cc1)=N[C@@H](CC(=O)OC(C)(C)C)c1nnc(C)n1-2", "note": "[JQ1] + Nc1nc2[nH]cc(CCc3ccc(C(=O)N[C@@H](CCC(=O)O)C(=O)O)cc3)c2c(=O)[nH]1 [Pemetrexed] (partner 0.2 µM)", "values": [{"measurement": "relative viability", "setting": "[1]; first compound 0.04 µM", "value": 0.325}, {"measurement": "relative viability", "setting": "[1]; first compound 0.4 µM", "value": 0.293}, {"measurement": "relative viability", "setting": "[1]; first compound 1.265 µM", "value": 0.274}, {"measurement": "relative viability", "setting": "[1]; first compound 4 µM", "value": 0.23}, {"measurement": "relative viability", "setting": "[2]; first compound 0.04 µM", "value": 0.988}, {"measurement": "relative viability", "setting": "[2]; first compound 0.1265 µM", "value": 0.794}, {"measurement": "relative viability", "setting": "[2]; first compound 0.4 µM", "value": 0.994}, {"measurement": "relative viability", "setting": "[2]; first compound 1.265 µM", "value": 0.914}, {"measurement": "relative viability", "setting": "[2]; first compound 4 µM", "value": 0.639}, {"measurement": "relative viability", "setting": "[3]; first compound 0.04 µM", "value": 0.21}, {"measurement": "relative viability", "setting": "[3]; first compound 0.1265 µM", "value": 0.214}, {"measurement": "relative viability", "setting": "[3]; first compound 0.4 µM", "value": 0.196}, {"measurement": "relative viability", "setting": "[3]; first compound 1.265 µM", "value": 0.159}, {"measurement": "relative viability", "setting": "[3]; first compound 4 µM", "value": 0.147}, {"measurement": "relative viability", "setting": "[4]; first compound 0.04 µM", "value": 0.569}, {"measurement": "relative viability", "setting": "[4]; first compound 0.1265 µM", "value": 0.515}, {"measurement": "relative viability", "setting": "[4]; first compound 0.4 µM", "value": 0.453}, {"measurement": "relative viability", "setting": "[4]; first compound 1.265 µM", "value": 0.364}, {"measurement": "relative viability", "setting": "[4]; first compound 4 µM", "value": 0.3}, {"measurement": "relative viability", "setting": "[5]; first compound 0.04 µM", "value": 0.59}, {"measurement": "relative viability", "setting": "[5]; first compound 0.1265 µM", "value": 0.617}, {"measurement": "relative viability", "setting": "[5]; first compound 0.4 µM", "value": 0.692}, {"measurement": "relative viability", "setting": "[5]; first compound 1.265 µM", "value": 0.58}, {"measurement": "relative viability", "setting": "[5]; first compound 4 µM", "value": 0.444}, {"measurement": "relative viability", "setting": "[6]; first compound 0.04 µM", "value": 0.268}, {"measurement": "relative viability", "setting": "[6]; first compound 0.1265 µM", "value": 0.258}, {"measurement": "relative viability", "setting": "[6]; first compound 0.4 µM", "value": 0.244}, {"measurement": "relative viability", "setting": "[6]; first compound 1.265 µM", "value": 0.256}, {"measurement": "relative viability", "setting": "[6]; first compound 4 µM", "value": 0.209}, {"measurement": "relative viability", "setting": "[7]; first compound 0.04 µM", "value": 0.44}, {"measurement": "relative viability", "setting": "[7]; first compound 0.1265 µM", "value": 0.385}, {"measurement": "relative viability", "setting": "[7]; first compound 0.4 µM", "value": 0.393}, {"measurement": "relative viability", "setting": "[7]; first compound 1.265 µM", "value": 0.359}, {"measurement": "relative viability", "setting": "[7]; first compound 4 µM", "value": 0.437}, {"measurement": "relative viability", "setting": "[8]; first compound 0.04 µM", "value": 0.168}, {"measurement": "relative viability", "setting": "[8]; first compound 0.1265 µM", "value": 0.199}, {"measurement": "relative viability", "setting": "[8]; first compound 0.4 µM", "value": 0.172}, {"measurement": "relative viability", "setting": "[8]; first compound 1.265 µM", "value": 0.141}, {"measurement": "relative viability", "setting": "[8]; first compound 4 µM", "value": 0.0882}, {"measurement": "relative viability", "setting": "[9]; first compound 0.04 µM", "value": 0.282}, {"measurement": "relative viability", "setting": "[9]; first compound 0.1265 µM", "value": 0.29}, {"measurement": "relative viability", "setting": "[9]; first compound 0.4 µM", "value": 0.234}, {"measurement": "relative viability", "setting": "[9]; first compound 1.265 µM", "value": 0.16}, {"measurement": "relative viability", "setting": "[9]; first compound 4 µM", "value": 0.158}, {"measurement": "relative viability", "setting": "[10]; first compound 0.04 µM", "value": 0.173}, {"measurement": "relative viability", "setting": "[10]; first compound 0.4 µM", "value": 0.167}, {"measurement": "relative viability", "setting": "[10]; first compound 1.265 µM", "value": 0.15}, {"measurement": "relative viability", "setting": "[10]; first compound 4 µM", "value": 0.153}, {"measurement": "relative viability", "setting": "[11]; first compound 0.04 µM", "value": 0.698}, {"measurement": "relative viability", "setting": "[11]; first compound 0.1265 µM", "value": 0.715}, {"measurement": "relative viability", "setting": "[11]; first compound 0.4 µM", "value": 0.673}, {"measurement": "relative viability", "setting": "[11]; first compound 1.265 µM", "value": 0.47}, {"measurement": "relative viability", "setting": "[11]; first compound 4 µM", "value": 0.491}, {"measurement": "relative viability", "setting": "[12]; first compound 0.04 µM", "value": 0.365}, {"measurement": "relative viability", "setting": "[12]; first compound 0.1265 µM", "value": 0.293}, {"measurement": "relative viability", "setting": "[12]; first compound 0.4 µM", "value": 0.335}, {"measurement": "relative viability", "setting": "[12]; first compound 1.265 µM", "value": 0.202}, {"measurement": "relative viability", "setting": "[12]; first compound 4 µM", "value": 0.183}, {"measurement": "relative viability", "setting": "[13]; first compound 0.04 µM", "value": 0.748}, {"measurement": "relative viability", "setting": "[13]; first compound 0.1265 µM", "value": 0.81}, {"measurement": "relative viability", "setting": "[13]; first compound 0.4 µM", "value": 0.648}, {"measurement": "relative viability", "setting": "[13]; first compound 1.265 µM", "value": 0.661}, {"measurement": "relative viability", "setting": "[13]; first compound 4 µM", "value": 0.78}, {"measurement": "relative viability", "setting": "[14]; first compound 0.04 µM", "value": 0.362}, {"measurement": "relative viability", "setting": "[14]; first compound 0.1265 µM", "value": 0.314}, {"measurement": "relative viability", "setting": "[14]; first compound 0.4 µM", "value": 0.358}, {"measurement": "relative viability", "setting": "[14]; first compound 1.265 µM", "value": 0.312}, {"measurement": "relative viability", "setting": "[14]; first compound 4 µM", "value": 0.184}, {"measurement": "relative viability", "setting": "[15]; first compound 0.04 µM", "value": 0.468}, {"measurement": "relative viability", "setting": "[15]; first compound 0.1265 µM", "value": 0.423}, {"measurement": "relative viability", "setting": "[15]; first compound 0.4 µM", "value": 0.403}, {"measurement": "relative viability", "setting": "[15]; first compound 1.265 µM", "value": 0.405}, {"measurement": "relative viability", "setting": "[15]; first compound 4 µM", "value": 0.357}, {"measurement": "relative viability", "setting": "[16]; first compound 0.04 µM", "value": 0.677}, {"measurement": "relative viability", "setting": "[16]; first compound 0.1265 µM", "value": 0.67}, {"measurement": "relative viability", "setting": "[16]; first compound 0.4 µM", "value": 0.41}, {"measurement": "relative viability", "setting": "[16]; first compound 1.265 µM", "value": 0.208}, {"measurement": "relative viability", "setting": "[16]; first compound 4 µM", "value": 0.171}, {"measurement": "relative viability", "setting": "[17]; first compound 0.04 µM", "value": 0.0603}, {"measurement": "relative viability", "setting": "[17]; first compound 0.1265 µM", "value": 0.0567}, {"measurement": "relative viability", "setting": "[17]; first compound 0.4 µM", "value": 0.0624}, {"measurement": "relative viability", "setting": "[17]; first compound 1.265 µM", "value": 0.0611}, {"measurement": "relative viability", "setting": "[17]; first compound 4 µM", "value": 0.07}, {"measurement": "relative viability", "setting": "[18]; first compound 0.04 µM", "value": 0.491}, {"measurement": "relative viability", "setting": "[18]; first compound 0.1265 µM", "value": 0.461}, {"measurement": "relative viability", "setting": "[18]; first compound 0.4 µM", "value": 0.386}, {"measurement": "relative viability", "setting": "[18]; first compound 1.265 µM", "value": 0.335}, {"measurement": "relative viability", "setting": "[18]; first compound 4 µM", "value": 0.367}, {"measurement": "relative viability", "setting": "[19]; first compound 0.04 µM", "value": 0.12}, {"measurement": "relative viability", "setting": "[19]; first compound 0.1265 µM", "value": 0.148}, {"measurement": "relative viability", "setting": "[19]; first compound 0.4 µM", "value": 0.105}, {"measurement": "relative viability", "setting": "[19]; first compound 1.265 µM", "value": 0.136}, {"measurement": "relative viability", "setting": "[19]; first compound 4 µM", "value": 0.133}, {"measurement": "relative viability", "setting": "[20]; first compound 0.04 µM", "value": 0.826}, {"measurement": "relative viability", "setting": "[20]; first compound 0.1265 µM", "value": 0.789}, {"measurement": "relative viability", "setting": "[20]; first compound 0.4 µM", "value": 0.598}, {"measurement": "relative viability", "setting": "[20]; first compound 1.265 µM", "value": 0.398}, {"measurement": "relative viability", "setting": "[20]; first compound 4 µM", "value": 0.295}, {"measurement": "relative viability", "setting": "[21]; first compound 0.04 µM", "value": 0.472}, {"measurement": "relative viability", "setting": "[21]; first compound 0.1265 µM", "value": 0.477}, {"measurement": "relative viability", "setting": "[21]; first compound 0.4 µM", "value": 0.349}, {"measurement": "relative viability", "setting": "[21]; first compound 1.265 µM", "value": 0.19}, {"measurement": "relative viability", "setting": "[21]; first compound 4 µM", "value": 0.195}]}]}
